{"source": "patent US10045978B2", "about": "(AB SCIENCE, priority 2010, dated 2018)", "system": "patients with indolent forms of mastocytosis with handicap, D816V absent in at least one infiltrated organ", "experiment": "Example 1 phase 2a study, response assessment", "type": "in vivo, human", "parameters": "Hamilton rating Δ Mean ± SD / QLQ-C30 Symptom Δ Mean ± SD / QLQ-C30 Global Health Δ Mean ± SD / AFIRMM Δ Mean ± SD / Hamilton rating ΔMean ± SD / QLQC30 Symptom ΔMean ± SD / QLQC30 Global Health ΔMean ± SD / AFIRMM ΔMean ± SD: scale not given here", "experimental": "Eligible patients were aged >18 years, had previously documented indolent systemic, smoldering systemic or cutaneous mastocytosis as per the WHO classification with associated disability as the result of mast cell released mediators and had not responded to usual symptomatic treatments for more the 6 months. […] A single occurrence of this criterion was deemed sufficient for inclusion and so no systematic examination of multiple organs was carried out specifically for this study.\nPatients were classified as having a handicap if after appropriate symptomatic treatments they fulfilled at least one of the following a priori criteria: number of flushes/day ≥1; pruritus score ≥6; number of stools ≥4/day; micturition frequency ≥8/day; Hamilton rating for depression ≥10; or EORTC quality-of-life questionnaire (QLQ-C30) symptom score, functional score, and global health status of >0. Patients were excluded if they experienced inadequate organ function defined via blood test levels, or an Eastern Cooperative Oncology Group performance status >2. Other exclusion criteria included: life expectancy <6 months, severe or uncontrolled medical disease, and patients who were pregnant or nursing.\nIn accordance to the AFIRMM study (Hermine O, et al., 2008, PLoS ONE. 3:e2266), evaluation of treatment response was based upon the change of clinical symptoms associated with a patient's handicaps at week 12 (W12) relative to baseline. Primary endpoints were daily frequency of flushes; pruritus score; and Hamilton rating for depression, as well as, daily stool and micturition frequencies; QLQ-C30 global health status, functional, and symptom scores. […] For those patients entering the extension phase, assessments were performed every 4 weeks for the first 3 months of extension, and every 12 weeks thereafter. Secondary endpoints included the W12 assessment of AFIRMM score (a validated questionnaire assessing the self-perceived severity of mastocytosis) (Hermine O, et al., 2008, PLoS ONE. 3:e2266); overall patient assessment (OPA) score; tryptase levels; and change in organ mast cell infiltration. Determination of D816V mutation and serum tryptase levels was conducted following procedures described previously (Hermine O, et al., 2008, PLoS ONE. 3:e2266). Overall clinical response analysis at W12 defined a responder as having an improvement of ≥50% in baseline handicap of a key response endpoint (Hamilton rating, flushes, or pruritus) without deterioration or emergence of handicap. Any patient with deterioration of ≥50% in any handicap, and/or with emergence of a new handicap with an increase of ≥50% from baseline was considered as worsening. Any patient who discontinued the study before W12 was considered a non responder. Discrimination between dose regimens was investigated by analyses of the ‘time to first response’, according to the initial dosage, and ‘dose at time of first response’ in key response endpoints.\nResponse analysis was performed on subgroups of the ITT population according to a patient's handicap at baseline and for whom response was evaluated at W12; referred to hereafter as the handicap-related population. No data imputation was implemented. The per protocol (PP) population was defined as a subset of a given handicap-related population, which in addition had presented no major protocol deviations. Summary response data are presented using descriptive statistics with mean improvement compared to baseline in each handicap cohort, regardless of disease classification. The appropriate Wilcoxon or Fisher tests were used for group comparison of baseline disease, demographic characteristics between dose level groups and response relative to baseline. Subpopulation analysis was also conducted according to initial c-Kit status.", "key": {"[1]": {"conditions": "W12, Group 1 (no confirmed D816V)"}, "[2]": {"conditions": "W12, Group 2 (mixed c-Kit status)"}, "[3]": {"conditions": "W12, handicap-related population"}}, "data": [{"smiles": "Cc1ccc(NC(=O)c2ccc(CN3CCN(C)CC3)cc2)cc1Nc1nc(-c2cccnc2)cs1", "note": "[masitinib, 4-(4-methylpiperazin-1-ylmethyl)-N-[4-methyl-3-(4-pyridin-3ylthiazol-2-ylamino)phenyl]benzamide]", "values": [{"measurement": "skin mast cell infiltration: good partial response (≥50% reduction)", "setting": "1/14 evaluable patients", "result": 7, "unit": "%"}, {"measurement": "OPA: worsening of health status", "setting": "1/20 patient at one time point", "result": 5, "unit": "%"}, {"measurement": "skin mast cell infiltration: partial response (1 to 49% reduction)", "setting": "6/14 evaluable patients", "result": 43, "unit": "%"}, {"measurement": "skin mast cell infiltration: no change", "setting": "7/14 evaluable patients", "result": 50, "unit": "%"}, {"measurement": "OPA score improvement of at least one point", "setting": "9/20 patients", "result": 45, "unit": "%"}, {"measurement": "first response events at lower dose level of 4.5 mg/kg/day", "setting": "48/79 events", "result": 60, "unit": "%"}, {"measurement": "first response events occurring at dose ≤6 mg/kg/day", "setting": "76/79 events", "result": 96, "unit": "%"}, {"measurement": "first response events: AFIRMM score", "setting": "Total, all doses", "result": 10}, {"measurement": "first response events: Flush", "setting": "Total, all doses", "result": 17}, {"measurement": "first response events: Hamilton", "setting": "Total, all doses", "result": 10}, {"measurement": "first response events: Micturition", "setting": "Total, all doses", "result": 1}, {"measurement": "first response events: OPA score", "setting": "Total, all doses", "result": 7}, {"measurement": "first response events: Pruritus", "setting": "Total, all doses", "result": 11}, {"measurement": "first response events: QLQ30 Functional", "setting": "Total, all doses", "result": 5}, {"measurement": "first response events: QLQ30 Global", "setting": "Total, all doses", "result": 6}, {"measurement": "first response events: QLQ30 Symptom", "setting": "Total, all doses", "result": 5}, {"measurement": "first response events: Stool", "setting": "Total, all doses", "result": 7}, {"measurement": "first response events: Total events", "setting": "Total, all doses", "result": 79}, {"measurement": "QLQ-C30 functional score improvement", "setting": "W12", "result": "39%±81"}, {"measurement": "QLQ-C30 global health status improvement", "setting": "W12", "result": "51%±108"}, {"measurement": "QLQ-C30 symptom score improvement", "setting": "W12", "result": "2.5%±69"}, {"measurement": "clinical response rate: Hamilton rating", "setting": "W12", "result": 50, "unit": "%"}, {"measurement": "clinical response rate: flushes", "setting": "W12", "result": 60, "unit": "%"}, {"measurement": "clinical response rate: pruritus", "setting": "W12", "result": 25, "unit": "%"}, {"measurement": "OPA: impaired health status at baseline reporting none or minimal impairment", "setting": "W12, 3/20 evaluable patients", "result": 15, "unit": "%"}, {"measurement": "AFIRMM Δ Mean ± SD", "setting": "W12, All", "result": "−61.5 ± 49.6"}, {"measurement": "Flushes per day Δ Mean ± SD", "setting": "W12, All", "result": "−1.7 ± 1.5"}, {"measurement": "Hamilton rating Δ Mean ± SD", "setting": "W12, All", "result": "−5.1 ± 4.4"}, {"measurement": "Micturitions per day Δ Mean ± SD", "setting": "W12, All", "result": "−3.1 ± 3.7"}, {"measurement": "Pruritus Δ Mean ± SD", "setting": "W12, All", "result": "−3.0 ± 3.4"}, {"measurement": "QLQ-C30 Functional Δ Mean ± SD", "setting": "W12, All", "result": "8.7 ± 18.8"}, {"measurement": "QLQ-C30 Global Health Δ Mean ± SD", "setting": "W12, All", "result": "12.5 ± 24.7"}, {"measurement": "QLQ-C30 Symptom Δ Mean ± SD", "setting": "W12, All", "result": "−6.1 ± 13.6"}, {"measurement": "Stools per day Δ Mean ± SD", "setting": "W12, All", "result": "−1.9 ± 3.6"}, {"measurement": "AFIRMM Δ Mean ± SD", "setting": "[1]", "result": "−63.5 ± 52.9"}, {"measurement": "Flushes per day Δ Mean ± SD", "setting": "[1]", "result": "−2.0 ± 1.6"}, {"measurement": "Hamilton rating Δ Mean ± SD", "setting": "[1]", "result": "−4.6 ± 4.3"}, {"measurement": "Micturitions per day Δ Mean ± SD", "setting": "[1]", "result": "−3.0 ± 2.8"}, {"measurement": "Pruritus Δ Mean ± SD", "setting": "[1]", "result": "−3.5 ± 3.6"}, {"measurement": "QLQ-C30 Functional Δ Mean ± SD", "setting": "[1]", "result": "8.7 ± 21.0"}, {"measurement": "QLQ-C30 Global Health Δ Mean ± SD", "setting": "[1]", "result": "14.1 ± 27.0"}, {"measurement": "QLQ-C30 Symptom Δ Mean ± SD", "setting": "[1]", "result": "−5.4 ± 14.7"}, {"measurement": "Stools per day Δ Mean ± SD", "setting": "[1]", "result": "−2.0 ± 4.0"}, {"measurement": "AFIRMM Δ Mean ± SD", "setting": "[2]", "result": "−53.5 ± 38.5"}, {"measurement": "Flushes per day Δ Mean ± SD", "setting": "[2]", "result": "−0.8 ± 0.5"}, {"measurement": "Hamilton rating Δ Mean ± SD", "setting": "[2]", "result": "−10.0"}, {"measurement": "Micturitions per day Δ Mean ± SD", "setting": "[2]", "result": "−3.5 ± 7.8"}, {"measurement": "Pruritus Δ Mean ± SD", "setting": "[2]", "result": "−1.0 ± 2.2"}, {"measurement": "QLQ-C30 Functional Δ Mean ± SD", "setting": "[2]", "result": "8.6 ± 4.8"}, {"measurement": "QLQ-C30 Global Health Δ Mean ± SD", "setting": "[2]", "result": "6.3 ± 12.5"}, {"measurement": "QLQ-C30 Symptom Δ Mean ± SD", "setting": "[2]", "result": "−9.5 ± 6.2"}, {"measurement": "Stools per day Δ Mean ± SD", "setting": "[2]", "result": "−1.5 ± 2.1"}, {"measurement": "overall clinical response", "setting": "W12, ITT", "result": "14/25"}, {"measurement": "tryptase level, mean reduction", "setting": "W12, PP patients with elevated tryptase (>15 ng/mL) at baseline (N=5)", "result": 23, "unit": "%"}, {"measurement": "micturition frequency improvement", "setting": "W12, PP population", "result": "39%±14"}, {"measurement": "stool frequency improvement", "setting": "W12, PP population", "result": "44%±63"}, {"measurement": "AFIRMM global score improvement", "setting": "W12, evaluable patients (N=20)", "result": "40%±27"}, {"measurement": "micturition frequency improvement", "setting": "[3]", "result": "23%±30"}, {"measurement": "stool frequency improvement", "setting": "[3]", "result": "29%±58"}, {"measurement": "bone marrow mast cell infiltration", "setting": "W12, one patient of 15 evaluable, 7% at baseline", "result": 1, "unit": "%"}, {"measurement": "first response events: Cumulative Frequency", "setting": "at 1.5 mg/kg/day", "result": 0, "unit": "%"}, {"measurement": "first response events: Total events", "setting": "at 1.5 mg/kg/day", "result": 0}, {"measurement": "first response events: AFIRMM score", "setting": "at 3.0 mg/kg/day", "result": 4}, {"measurement": "first response events: Cumulative Frequency", "setting": "at 3.0 mg/kg/day", "result": 46, "unit": "%"}, {"measurement": "first response events: Flush", "setting": "at 3.0 mg/kg/day", "result": 9}, {"measurement": "first response events: Hamilton", "setting": "at 3.0 mg/kg/day", "result": 4}, {"measurement": "first response events: OPA score", "setting": "at 3.0 mg/kg/day", "result": 2}, {"measurement": "first response events: Pruritus", "setting": "at 3.0 mg/kg/day", "result": 5}, {"measurement": "first response events: QLQ30 Functional", "setting": "at 3.0 mg/kg/day", "result": 3}, {"measurement": "first response events: QLQ30 Global", "setting": "at 3.0 mg/kg/day", "result": 2}, {"measurement": "first response events: QLQ30 Symptom", "setting": "at 3.0 mg/kg/day", "result": 2}, {"measurement": "first response events: Stool", "setting": "at 3.0 mg/kg/day", "result": 5}, {"measurement": "first response events: Total events", "setting": "at 3.0 mg/kg/day", "result": 36}, {"measurement": "first response events: AFIRMM score", "setting": "at 4.5 mg/kg/day", "result": 1}, {"measurement": "first response events: Cumulative Frequency", "setting": "at 4.5 mg/kg/day", "result": 61, "unit": "%"}, {"measurement": "first response events: Flush", "setting": "at 4.5 mg/kg/day", "result": 3}, {"measurement": "first response events: Hamilton", "setting": "at 4.5 mg/kg/day", "result": 2}, {"measurement": "first response events: Pruritus", "setting": "at 4.5 mg/kg/day", "result": 2}, {"measurement": "first response events: QLQ30 Functional", "setting": "at 4.5 mg/kg/day", "result": 1}, {"measurement": "first response events: QLQ30 Global", "setting": "at 4.5 mg/kg/day", "result": 2}, {"measurement": "first response events: QLQ30 Symptom", "setting": "at 4.5 mg/kg/day", "result": 1}, {"measurement": "first response events: Total events", "setting": "at 4.5 mg/kg/day", "result": 12}]}]}
